Assay results from patent publication US20250049777A1, “PHARMACEUTICALLY ACCEPTABLE SALT AND CRYSTALLINE FORM OF GLP-1 RECEPTOR AGONIST AND PREPARATION METHOD THEREFOR” (JIANGSU HENGRUI PHARMACEUTICALS CO., LTD., priority 2021, published 2025).
Where a name gives a salt, the structure may show the parent alone. Read-outs that look alike come from different tables or passages of the source.

Tests used:
[1] = assay type: physicochemical
Experimental: A salt-type sample was sealed with an aluminum foil bag and placed under the conditions of 25° C./60% RH and 40° C./75% RH, respectively, to investigate the stability.

[2] = Stability of crystal forms of salts under influencing factors (illumination, high temperature, high humidity); assay type: physicochemical
Source text: The sampling and investigation period was 30 days.

[3] = Hygroscopicity of crystal forms of salts (DVS, 25° C.); assay type: physicochemical; details: for Crystal form after DVS: 0% to 95% RH
Source text: According to the description of hygroscopic characteristics and the definition of hygroscopic weight gain in “9103 Guidelines for Hygroscopicity of Pharmaceuticals”, Chinese Pharmacopoeia, Volume IV, 2015 edition, the following are defined: • deliquescent: absorbing enough water to form a liquid; • extremely hygroscopic: having a hygroscopic weight gain of not less than 15%; • hygroscopic: having a hygroscopic weight gain of less than 15% and not less than 2%; • slightly hygroscopic: having a hygroscopic weight gain of less than 2% and not less than 0.2%; and • no or almost no hygroscopicity: having a hygroscopic weight gain of less than 0.2%.
Surface Measurement Systems intrinsic DVS was used at 25° C. The observed humidity ranged from 0% to 95%. The step was 10%. The criterion was that the mass change dM/dT for each step was less than 0.002%. TMAX was 360 min. Two cycles were carried out.

[4] = 25° C./60% RH, sealed aluminum foil bag
[5] = 40° C./75% RH, sealed aluminum foil bag
[6] = Illumination (4500 Lux), 7 days, open
[7] = Illumination (4500 Lux), 14 days, open
[8] = Illumination (4500 Lux), 30 days, open
[9] = 25° C./60% RH, 1 month, sealed aluminum foil bag
[10] = 40° C./75% RH, 1 month, sealed aluminum foil bag
[11] = 40° C./75% RH, 3 months, sealed aluminum foil bag
[12] = Illumination (4500 Lux), 5 days, open
[13] = Illumination (4500 Lux), 10 days, open

Q: What does the source list for `O=C(O)c1ccc2nc(CN3CCC(c4cccc5c4O[C@@H](c4ccc(Cl)cc4F)CO5)CC3)n(C[C@@H]3CCO3)c2c1` [Crystal form A of tromethamine salt, 2-((4-((S)-3-(4-chloro-2-fluorophenyl)-2,3-dihydrobenzo[b][1,4]dioxan-5-yl)piperidin-1-yl)methyl)-1-(((S)-oxetan-2-yl)methyl)-1H-benzo[d]imidazole-6-carboxylic acid]?
A: physical and chemical stability [1]: good physical and chemical stability; Crystal form [1, 4]: Unchanged; Crystal form [1, 5]: Unchanged; chemical stability [2]: slightly poor chemical stability; % Purity ([2]; 40° C., 7 days, open): 96.1%; Crystal form ([2]; 40° C., 7 days, open): Unchanged; % Purity ([2]; 40° C., 14 days, open): 91.7%; Crystal form ([2]; 40° C., 14 days, open): Unchanged; % Purity ([2]; 40° C., 30 days, open): 87.4%; Crystal form ([2]; 40° C., 30 days, open): Unchanged; % Purity ([2]; 60° C., 7 days, open): 93.5%; Crystal form ([2]; 60° C., 7 days, open): Unchanged; % Purity ([2]; 60° C., 14 days, open): 88.6%; Crystal form ([2]; 60° C., 14 days, open): Unchanged; % Purity ([2]; 75% RH, 7 days, open): 99.4%; Crystal form ([2]; 75% RH, 7 days, open): Unchanged; % Purity ([2]; 75% RH, 14 days, open): 99.4%; Crystal form ([2]; 75% RH, 14 days, open): Unchanged; % Purity ([2]; 75% RH, 30 days, open): 99.3%; Crystal form ([2]; 75% RH, 30 days, open): Unchanged; % Purity ([2]; 92.5% RH, 7 days, open): 99.3%; Crystal form ([2]; 92.5% RH, 7 days, open): Unchanged; % Purity ([2]; 92.5% RH, 14 days, open): 99.0%; Crystal form ([2]; 92.5% RH, 14 days, open): Unchanged; % Purity ([2]; 92.5% RH, 30 days, open): 98.6%; Crystal form ([2]; 92.5% RH, 30 days, open): Unchanged; % Purity [2, 6]: 98.9%; Crystal form [2, 6]: Unchanged; % Purity [2, 7]: 97.6%; Crystal form [2, 7]: Unchanged; % Purity [2, 8]: 90.8%; Crystal form [2, 8]: Unchanged; % Purity ([2]; Initial condition, 0 days): 99.5%; hygroscopic weight gain 0.0% RH to 80.0% RH [3]: 5.02%; Crystal form after DVS [3]: Unchanged

Q: Which “physical and chemical stability” value [1] does the source give for `O=C(O)c1ccc2nc(CN3CCC(c4cccc5c4O[C@@H](c4ccc(Cl)cc4F)CO5)CC3)n(C[C@@H]3CCO3)c2c1` [Crystal form D of tromethamine salt, 2-((4-((S)-3-(4-chloro-2-fluorophenyl)-2,3-dihydrobenzo[b][1,4]dioxan-5-yl)piperidin-1-yl)methyl)-1-(((S)-oxetan-2-yl)methyl)-1H-benzo[d]imidazole-6-carboxylic acid] here?
A: good physical and chemical stability

Q: And the “% Purity” value [1, 9]?
A: 99.7%

Q: And the “% Purity” value ([1]; 25° C./60% RH, 3 months, sealed aluminum foil bag)?
A: 99.7%

Q: What about the Crystal form [1, 4] of the same compound?
A: Unchanged

Q: And the “% Purity” value [1, 10]?
A: 99.5%

Q: And the “% Purity” value [1, 11]?
A: 99.1%

Q: And the Crystal form [1, 5]?
A: Unchanged

Q: What about the “% Purity” value ([1]; Initial condition) of the same compound?
A: 99.7%

Q: What about the “% Purity” value ([2]; 40° C., 7 days, open) of the same compound?
A: 99.5%

Q: What about the Crystal form ([2]; 40° C., 7 days, open) of the same compound?
A: Unchanged

Q: And the “% Purity” value ([2]; 40° C., 14 days, open)?
A: 99.3%

Q: And the Crystal form ([2]; 40° C., 14 days, open)?
A: Unchanged

Q: And the “% Purity” value ([2]; 40° C., 30 days, open)?
A: 99.3%

Q: And the Crystal form ([2]; 40° C., 30 days, open)?
A: Unchanged

Q: And the “% Purity” value ([2]; 60° C., 7 days, open)?
A: 99.4%

Q: What about the Crystal form ([2]; 60° C., 7 days, open) of the same compound?
A: Unchanged

Q: What about the “% Purity” value ([2]; 60° C., 14 days, open) of the same compound?
A: 99.1%

Q: And the Crystal form ([2]; 60° C., 14 days, open)?
A: Unchanged

Q: And the “% Purity” value ([2]; 60° C., 30 days, open)?
A: 99.0%

Q: And the Crystal form ([2]; 60° C., 30 days, open)?
A: Unchanged

Q: And the “% Purity” value ([2]; 75% RH, 7 days, open)?
A: 99.7%

Q: What about the Crystal form ([2]; 75% RH, 7 days, open) of the same compound?
A: Unchanged

Q: What about the “% Purity” value ([2]; 75% RH, 14 days, open) of the same compound?
A: 99.6%

Q: What about the Crystal form ([2]; 75% RH, 14 days, open) of the same compound?
A: Unchanged

Q: What about the “% Purity” value ([2]; 75% RH, 30 days, open) of the same compound?
A: 99.6%

Q: What about the Crystal form ([2]; 75% RH, 30 days, open) of the same compound?
A: Unchanged

Q: And the “% Purity” value ([2]; 92.5% RH, 7 days, open)?
A: 99.5%

Q: What about the Crystal form ([2]; 92.5% RH, 7 days, open) of the same compound?
A: Unchanged

Q: And the “% Purity” value ([2]; 92.5% RH, 14 days, open)?
A: 99.4%

Q: And the Crystal form ([2]; 92.5% RH, 14 days, open)?
A: Unchanged

Q: And the “% Purity” value ([2]; 92.5% RH, 30 days, open)?
A: 99.0%

Q: And the Crystal form ([2]; 92.5% RH, 30 days, open)?
A: Unchanged

Q: And the “% Purity” value [2, 6]?
A: 99.6%

Q: And the Crystal form [2, 6]?
A: Unchanged

Q: And the “% Purity” value [2, 7]?
A: 99.6%

Q: And the Crystal form [2, 7]?
A: Unchanged

Q: What about the “% Purity” value [2, 8] of the same compound?
A: 99.6%

Q: And the Crystal form [2, 8]?
A: Unchanged

Q: And the “% Purity” value ([2]; Initial condition, 0 days)?
A: 99.7%

Q: What about the “hygroscopic weight gain 0.0% RH to 80.0% RH” value [3] of the same compound?
A: 2.45%

Q: What about the “Crystal form after DVS” value [3] of the same compound?
A: Unchanged

Q: Which results are given for `O=C(O)c1ccc2nc(CN3CCC(c4cccc5c4O[C@@H](c4ccc(Cl)cc4F)CO5)CC3)n(C[C@@H]3CCO3)c2c1` [Crystal form I of hydrochloride salt, 2-((4-((S)-3-(4-chloro-2-fluorophenyl)-2,3-dihydrobenzo[b][1,4]dioxan-5-yl)piperidin-1-yl)methyl)-1-(((S)-oxetan-2-yl)methyl)-1H-benzo[d]imidazole-6-carboxylic acid]?
A: physical and chemical stability [1]: good physical and chemical stability; % Purity [1, 9]: 98.1%; % Purity ([1]; 25° C./60% RH, 2 months, sealed aluminum foil bag): 97.9%; Crystal form [1, 4]: Unchanged; % Purity [1, 10]: 97.8%; % Purity ([1]; 40° C./75% RH, 2 months, sealed aluminum foil bag): 97.8%; Crystal form [1, 5]: Unchanged; % Purity ([1]; Initial condition): 98.0%; % Purity ([2]; 40° C., 5 days, open): 98.0%; Crystal form ([2]; 40° C., 5 days, open): Unchanged; % Purity ([2]; 40° C., 10 days, open): 98.1%; Crystal form ([2]; 40° C., 10 days, open): Unchanged; % Purity ([2]; 40° C., 30 days, open): 97.8%; Crystal form ([2]; 40° C., 30 days, open): Unchanged; % Purity ([2]; 60° C., 5 days, open): 97.6%; Crystal form ([2]; 60° C., 5 days, open): Unchanged; % Purity ([2]; 60° C., 10 days, open): 97.7%; Crystal form ([2]; 60° C., 10 days, open): Unchanged; % Purity ([2]; 60° C., 30 days, open): 97.7%; Crystal form ([2]; 60° C., 30 days, open): Unchanged; % Purity ([2]; 75% RH, 5 days, open): 98.1%; Crystal form ([2]; 75% RH, 5 days, open): Unchanged; % Purity ([2]; 75% RH, 10 days, open): 98.0%; Crystal form ([2]; 75% RH, 10 days, open): Unchanged; % Purity ([2]; 75% RH, 30 days, open): 98.1%; Crystal form ([2]; 75% RH, 30 days, open): Unchanged; % Purity ([2]; 92.5% RH, 5 days, open): 98.1%; Crystal form ([2]; 92.5% RH, 5 days, open): Unchanged; % Purity ([2]; 92.5% RH, 10 days, open): 97.4%; Crystal form ([2]; 92.5% RH, 10 days, open): Unchanged; % Purity ([2]; 92.5% RH, 30 days, open): 96.9%; Crystal form ([2]; 92.5% RH, 30 days, open): Unchanged; % Purity [2, 12]: 97.9%; Crystal form [2, 12]: Unchanged; % Purity [2, 13]: 98.1%; Crystal form [2, 13]: Unchanged; % Purity [2, 8]: 98.0%; Crystal form [2, 8]: Unchanged; % Purity ([2]; Initial condition, 0 days): 98.0%

Q: With `O=C(O)c1ccc2nc(CN3CCC(c4cccc5c4O[C@@H](c4ccc(Cl)cc4F)CO5)CC3)n(C[C@@H]3CCO3)c2c1` [Crystal form α of malate salt, 2-((4-((S)-3-(4-chloro-2-fluorophenyl)-2,3-dihydrobenzo[b][1,4]dioxan-5-yl)piperidin-1-yl)methyl)-1-(((S)-oxetan-2-yl)methyl)-1H-benzo[d]imidazole-6-carboxylic acid] as the compound, how does the “% Purity” value [1, 11] read?
A: 97.1%

Q: And the “% Purity” value ([1]; Initial condition)?
A: 99.0%

Q: And the “% Purity” value ([2]; 92.5% RH, 5 days, open, listed as crystal form a of malate salt)?
A: 99.0%

Q: And the “% Purity” value ([2]; Initial condition, 0 days, listed as crystal form a of malate salt)?
A: 99.0%
